Experimental findings from US20260098043A1, “POLYCYCLIC COMPOUND AND USE THEREOF” (HAINAN SIMCERE ZAIMING PHARMECEUTICAL CO., LTD., priority 2022, published 2026) are described below.

pIC50: −log10 of the molar value. Where two headings read alike, the source gives them in different places.

One test deals with T1, human Cereblon WT (Homo sapiens, UniProt Q96SW2).
T1 construct: purchased
In words: Cereblon binding experiment (HTRF Human Cereblon Binding Kit, competition with XL665-labeled lenalidomide tracer). The settings on record: 3 h incubation at room temperature, 100% inhibition = 200 μM lenalidomide, read-out: IC50 (binding ability to Cereblon). The source says:
The detection kit (HTRF Human Cereblon Binding Kits) used in the experiment was a detection method for the quantitative measurement of Cereblon WT ligands using HTRF® technology. The detection principle was based on HTRF technology, where the specifically labeled GST antibody (Euroum Cryptate, donor) simultaneously bound to the GST-labeled human Cereblon WT ligand and the XL665-labeled lenalidomide tracer (acceptor). The donor was excited by a light source to induce fluorescence resonance energy transfer (FRET) to the acceptor, and the acceptor emitted fluorescence at a specific wavelength of 665 nm. After the addition of a compound, the compound competed with the XL665-labeled lenalidomide to prevent FRET from occurring. […]
The compounds of the present disclosure were dissolved in DMSO at a stock concentration of 10 mM. […] The HTRF signal in each well was measured using an Envision plate reader. […]
The ratio of acceptor to donor emission signals was calculated for each well: […]
(§1) Data analysis was performed by GraphPad Prism 9. The concentration-response curves were obtained using non-linear four-parameter fitting, and the IC50 for the compound was calculated: […]
The binding ability of the compounds of the present disclosure to Cereblon was determined through the above test, and the measured IC50 values were shown in Table 1.

A further test deals with MV-4-11 cells. In words: Antiproliferative activity for MV-4-11 cells (CellTiter-Glo, 3 days). Format: cell-based. Conditions: Homo sapiens, MV4-11, 72 h, read-out: IC50 (antiproliferative activity for MV-4-11 cells). The method, then: The medium of the target cells MV-4-11 (CBP60522, Cobioer) was removed, and PBS was added for rinsing once, followed by digestion with trypsin (Trypsin-EDTA (0.25%)) for 5 min. After the digestion, 10 mL of a complete medium (IMDM+10% FBS) was added to neutralize the trypsin. The cells were then pipetted and collected, centrifuged at 1000 rpm for 5 min, and counted. The cell density was adjusted to 30,000 cells/mL. 90 μL of the cell suspension was added to a 96-well low-adsorption plate. 200 μL of PBS was added to the edge wells of the 96-well plate. The plate was centrifuged at 1000 rpm for 5 min to form cell spheroids, which were then incubated in a cell incubator overnight. […]
The cells were removed from the incubator and allowed to return to room temperature within 30 min. 50 μL of the CellTiter-Glo® Cell Viability Assay reagent was added, and the plate was shaken to mix thoroughly for 10 min before it was read on the Envision microplate reader.
The antiproliferative activity of the compounds of the present disclosure for MV-4-11 cells was determined through the above test, and the cell growth inhibition rate for each sample well was calculated based on the raw data.
as §1

The target of the next test is T2, BRD4 (Homo sapiens, UniProt O60885).
T2 construct: The degradation activity for BRD4 proteins in MV-4-11 cells; host or cells: MV-4-11
In words: Degradation activity for BRD4 proteins in MV-4-11 cells (Western blot, 6 h). The class given is cell-based. The settings on record: for DC50: read-out: DC50 of BRD4 protein degradation. How it is done:
The medium of MV-4-11 (CBP60522, Cobioer) was removed, and PBS was added for rinsing once, followed by digestion with trypsin (Trypsin-EDTA (0.25%)) for 5 min. After the digestion, 10 mL of a complete medium (an IMDM medium containing 10% FBS) was added to neutralize the trypsin. The cells were then pipetted and collected, centrifuged at 1000 rpm for 5 min, and counted. The cell density was adjusted to 500,000 cells/mL. 2 mL of the cell suspension was added to a 12-well plate, and the plate was incubated in a cell incubator overnight.
The compounds of the present disclosure were dissolved in DMSO at a stock concentration of 10 mM. The compound stock solution was subjected to gradient dilution (4-fold dilution), resulting in 8 concentration points. DMSO was used as the negative control group, and the DMSO content was 0.1%. After mixing the compound with the cell suspension thoroughly, the mixture was incubated at 37° C. with 5% CO2 for 6 h.
Six hours after drug treatment, the supernatant was discarded, and the cells were washed with 1000 μL of pre-cooled PBS. 100 μL of RIPA lysis buffer (25 mM Tris-HCl, pH=7.5, 150 mM NaCl, 1% NP-40, 1 mM EDTA, pH=8.0, 1 mM PMSF, 1 mM Na3VO4, and 1× Protease Inhibitor Cocktail-P2714, Sigma) was added and placed on ice for lysis for 10 min. The lysed cell samples were collected and centrifuged at 12000 rpm at 4° C. for 30 min. The concentration of each protein sample was determined using the Pierce BCA kit for protein quantification. An appropriate amount of 5×SDS-PAGE protein loading buffer was added to the collected protein samples, and the mixtures were then heated in a metal bath at 100° C. for 10 min to fully denature the proteins. The protein samples were loaded into the SDS-PAGE gel loading wells and electrophoresed at a constant voltage of 120 V for 60 min. After the electrophoresis, the gel was transferred to a PVDF membrane using a Bio-bad transfer apparatus. After the transfer, the band was cut according to the size of the target protein and blocked with 5% BSA (prepared by dissolving 5 g of BSA in 100 mL of TBST) at room temperature for 1 h. […] The proteins were detected using the SuperSignal West Atto ultra-sensitive ECL luminescent liquid.
The degradation activity for BRD4 proteins in MV-4-11 cells by the compounds of the present disclosure was determined through the above test. The gray values of the target sample bands were read using Image J software, and the protein degradation rate for each sample well was calculated based on the raw data.
[formula] • wherein: • All raw data were processed for data analysis using GraphPad Prism 9. The concentration-response curves were obtained using non-linear four-parameter fitting, and the DC50 for the compound was calculated: […]

[1] abbreviates: MV-4-11 cells, 6 h, Western blot.

For the compound `Cn1c(=O)n(C2CCC(=O)NC2=O)c2ccc3ccccc3c21` (centres unmarked) [Compound 1, 3-(1-methyl-2-oxo-1,2-dihydro-3H-naphtho[1,2-d]imidazol-3-yl)piperidine-2,6-dione], the pIC50 at human Cereblon WT was 6.73.

Take `Cc1sc2c(c1C)C(c1ccc(Cl)cc1)=N[C@@H](CC(=O)NCCCCCC(=O)NCc1ccc3ccc4c(c3c1)n(C)c(=O)n4C1CCC(=O)NC1=O)c1nnc(C)n1-2` (stereo partly drawn) [Compound 2, 6-(2-((S)-4-(4-chlorophenyl)-2,3,9-trimethyl-6H-thieno[3,2-f][1,2,4]triazolo[4,3-a][1,4]diazepin-6-yl)acetamido)-N-((3-(2,6-dioxopiperidin-3-yl)-1-methyl-2-oxo-2,3-dihydro-1H-naphtho[1,2-d]imidazol-8-yl)methyl)hexanamide]: the negative-log IC50 (pIC50) with MV-4-11 cells was 8.42. Besides, the Dmax on BRD4 (MV4-11, read-out: Maximum degradation rate (%) of BRD4 protein) is 85.6%. Moreover, the DC50 at BRD4 (setting [1]) turned out to be 2.19 nM.

On to `Cc1sc2c(c1C)C(c1ccc(Cl)cc1)=N[C@@H](CC(=O)NCCCCCC(=O)NCc1cccc3c1ccc1c3n(C)c(=O)n1C1CCC(=O)NC1=O)c1nnc(C)n1-2` (stereo partly drawn) [Compound 3, 6-(2-((S)-4-(4-Chlorophenyl)-2,3,9-trimethyl-6H-thieno[3,2-f][1,2,4]triazolo[4,3-a][1,4]diazepin-6-yl)acetamido)-N-((3-(2,6-dioxopiperidin-3-yl)-1-methyl-2-oxo-2,3-dihydro-1H-naphtho[1,2-d]imidazol-6-yl)methyl)hexanamide], for which the pIC50 in the test with MV-4-11 cells (MV-4-11 cells, 3 days, CellTiter-Glo) was 7.85. In addition, the Dmax on BRD4 (MV4-11, MV-4-11 cells, 6 h, Western blot, read-out: Maximum degradation rate (%) of BRD4 protein) turned out to be 74.3%. Moreover, at BRD4 (setting [1]), the DC50 was 11.2 nM.

As for `Cn1c(=O)n(C2CCC(=O)NC2=O)c2ccc3c(c21)CNCC3` (centres unmarked) [Compound 8, 3-(1-methyl-2-oxo-1,2,6,7,8,9-hexahydro-3H-imidazo[4,5-h]isoquinolin-3-yl)piperidine-2,6-dione, reference compound], the negative-log IC50 (pIC50) on human Cereblon WT is 5.06.
